Measurements: paper PMC5931096, “A Phase I study of the novel immunomodulatory agent PG545 (pixatimod) in subjects with advanced solid tumours” (British Journal of Cancer, 2018)
“Also recorded” adds a separate entry of the source. Like-named read-outs stand apart in the source and are kept apart here.

How the values were obtained:
pDC and NK cells = test: Flow cytometry of PBMC for DC and NK cell activation; format: in vivo, human
Procedure: (§1) Plasma and peripheral blood mononuclear cell (PBMC) samples were obtained at various points for PD assessment with the exception of the 25 mg cohort, where PBMC were not collected. Plasma samples were analysed for the concentration of various markers, including cytokines, chemokines and heparanase using commercial ELISA (LifeSpan Biosciences, Seattle, WA), and array kits (Quansys, Logan, UT).
Cryopreserved PBMC samples were analysed by flow cytometry for changes in abundance and activation status of DC and NK cells at day 3 post-treatment compared with pre-dose samples (day 1). Given the stimulatory nature of PG545 via TLR9 reported in mice,[18] efforts were primarily focussed on the assessments of pDC and NK cells though certain subjects with available sample underwent additional analyses. To assess pDC, cells were stained with antibodies to HLADR-peCy7, CD303-FITC, IFNα-647 (BD Biosciences, Franklin Lakes, NJ). To assess NK cells, cells were stained with antibodies to CD335-PE, CD3-APC, IFNγ-FITC (BD Biosciences). All intracellular cytokine staining samples were stimulated by 100 ng/mL PMA, 100 ng/mL ionomycin and 5 μg/mL Brefeldin A for 4 h at 37 °C. Samples were acquired using FACSCanto flow cytometers (BD Biosciences).

heparanase = details: cited from earlier work
[1] = test system: plasma IFNγ, TNFα, IP-10 and MCP-1; test: Plasma cytokine/chemokine biomarkers (ELISA, array kits); format: in vivo, human
Procedure: as §1

[2] = Plasma pharmacokinetics (LC-MS/MS, population PK model and NCA); format: in vivo, human; details: for AUC / Cmax / AUC(0-t) / half-life: human, plasma, intravenous
Procedure: Plasma samples were obtained for the first (day 1) and fourth (day 22) doses, as follows: (1) pre-dosing (no more than 4 h prior to infusion start); (2) mid-point of infusion; prior to completion of infusion; 30 min post-infusion; then 2, 4, 6, 24, 48, 72, 144 and 168 h post-infusion. Samples were analysed for PG545 concentration using a validated liquid chromatography with tandem mass spectrometry (LC-MS/MS) assay.[13] A population PK model was developed using NONMEM® and individual non-compartmental analysis-type exposure parameter estimation was also performed.

[3] = 100 mg, dose number 1, NCA mean
[4] = 100 mg, dose number 4, NCA mean
[5] = 150 mg, dose number 1, NCA mean
[6] = 150 mg, dose number 4, NCA mean

CC(C)CCC[C@@H](C)[C@H]1CC[C@H]2[C@@H]3CC[C@H]4C[C@@H](O[C@@H]5O[C@H](COS(=O)(=O)O)[C@@H](O[C@H]6O[C@H](COS(=O)(=O)O)[C@@H](O[C@H]7O[C@H](COS(=O)(=O)O)[C@@H](O[C@H]8O[C@H](COS(=O)(=O)O)[C@@H](OS(=O)(=O)O)[C@H](OS(=O)(=O)O)[C@H]8OS(=O)(=O)O)[C@H](OS(=O)(=O)O)[C@H]7OS(=O)(=O)O)[C@H](OS(=O)(=O)O)[C@H]6OS(=O)(=O)O)[C@H](OS(=O)(=O)O)[C@H]5OS(=O)(=O)O)CC[C@]4(C)[C@H]3CC[C@]12C [PG545]
pDC and NK cell activation parameters (pDC and NK cells; 150 mg cohort): unaffected or modestly responsive
Subjects with at least two-fold increased numbers of activated pDC or NK cells (pDC and NK cells; 50 and 100 mg, 2 days after initial dose): six of the ten
Anti-heparanase activity (heparanase): strong anti-heparanase activity
Increases in TNFα, IL-6 and IL-8 responses ([1]; 150 mg vs 100 mg cohort averages): strikingly higher at 150 mg
Increase in plasma IFNγ, TNFα, IP-10 (CXCL10) and MCP-1 (CCL2) ([1]; after initial dose): up to 25 fold
Exposure (AUC0–168 and Cmax) relative to dose ([2]; 150 mg dose level): sub-proportional
Dose proportionality of exposure ([2]; 25-150 mg): proportional up to 100 mg; also recorded: general dose-proportionate exposure up to 100 mg
AUC ([2]; 25 mg, dose number 1, NCA mean): 432 µg·h/mL
Cmax ([2]; 25 mg, dose number 1, NCA mean): 9600 ng/mL
AUC(0-t) ([2]; 25 mg, dose number 1, NCA mean, read-out: AUC0-96): 339 µg·h/mL
AUC(0-t) ([2]; 25 mg, dose number 1, NCA mean, read-out: AUC0-last): 465 µg·h/mL
half-life ([2]; 25 mg, dose number 1, NCA mean, read-out: t1/2 (converted)): 149 h
AUC ([2]; 25 mg, dose number 4, NCA mean): 841 µg·h/mL
Cmax ([2]; 25 mg, dose number 4, NCA mean): 12400 ng/mL
AUC(0-t) ([2]; 25 mg, dose number 4, NCA mean, read-out: AUC0-96): 589 µg·h/mL
AUC(0-t) ([2]; 25 mg, dose number 4, NCA mean, read-out: AUC0-last): 611 µg·h/mL
half-life ([2]; 25 mg, dose number 4, NCA mean, read-out: t1/2 (converted)): 123 h
AUC ([2]; 50 mg, dose number 1, NCA mean): 695 µg·h/mL
Cmax ([2]; 50 mg, dose number 1, NCA mean): 15600 ng/mL
AUC(0-t) ([2]; 50 mg, dose number 1, NCA mean, read-out: AUC0-96): 539 µg·h/mL
AUC(0-t) ([2]; 50 mg, dose number 1, NCA mean, read-out: AUC0-last): 710 µg·h/mL
half-life ([2]; 50 mg, dose number 1, NCA mean, read-out: t1/2 (converted)): 183 h
AUC ([2]; 50 mg, dose number 4, NCA mean): 1640 µg·h/mL
Cmax ([2]; 50 mg, dose number 4, NCA mean): 21700 ng/mL
AUC(0-t) ([2]; 50 mg, dose number 4, NCA mean, read-out: AUC0-96): 1120 µg·h/mL
AUC(0-t) ([2]; 50 mg, dose number 4, NCA mean, read-out: AUC0-last): 1690 µg·h/mL
half-life ([2]; 50 mg, dose number 4, NCA mean, read-out: t1/2 (converted)): 228 h
AUC [2, 3]: 1210 µg·h/mL
Cmax [2, 3]: 29500 ng/mL
AUC(0-t) ([2]; 100 mg, dose number 1, NCA mean, read-out: AUC0-96): 974 µg·h/mL
AUC(0-t) ([2]; 100 mg, dose number 1, NCA mean, read-out: AUC0-last): 1210 µg·h/mL
half-life ([2]; 100 mg, dose number 1, NCA mean, read-out: t1/2 (converted)): 133 h
AUC [2, 4]: 2250 µg·h/mL
Cmax [2, 4]: 35600 ng/mL
AUC(0-t) ([2]; 100 mg, dose number 4, NCA mean, read-out: AUC0-96): 1610 µg·h/mL
AUC(0-t) ([2]; 100 mg, dose number 4, NCA mean, read-out: AUC0-last): 2380 µg·h/mL
half-life ([2]; 100 mg, dose number 4, NCA mean, read-out: t1/2 (converted)): 133 h
AUC [2, 5]: 1500 µg·h/mL
Cmax [2, 5]: 37100 ng/mL
AUC(0-t) ([2]; 150 mg, dose number 1, NCA mean, read-out: AUC0-96): 1190 µg·h/mL
AUC(0-t) ([2]; 150 mg, dose number 1, NCA mean, read-out: AUC0-last): 1440 µg·h/mL
half-life ([2]; 150 mg, dose number 1, NCA mean, read-out: t1/2 (converted)): 117 h
AUC [2, 6]: 3190 µg·h/mL
Cmax [2, 6]: 48600 ng/mL
AUC(0-t) ([2]; 150 mg, dose number 4, NCA mean, read-out: AUC0-96): 2230 µg·h/mL
AUC(0-t) ([2]; 150 mg, dose number 4, NCA mean, read-out: AUC0-last): 2780 µg·h/mL
half-life ([2]; 150 mg, dose number 4, NCA mean, read-out: t1/2 (converted)): 128 h
half-life ([2]; across all subjects, population PK model, read-out: Mean t1/2 (converted)): 141 h
Between subject variability of CL ([2]; population PK model): 75.6 % CV
Between subject variability of Vp ([2]; population PK model): 61.2 % CV
Apparent central volume (Vc) ([2]; population PK model, IV): 2.98 L
Apparent clearance (CL) ([2]; population PK model, IV): 0.0165 L/h
Apparent peripheral volume (Vp) ([2]; population PK model, IV): 11.9 L
